Key:
YT (IL-2 2.5 ng/mL) [1] = assay: percent inhibition of viability; higher = more inhibition; conditions: 72 h
NK-YS (IL-2 2.5 ng/mL) [2] = assay: as above; conditions: 72 h
DERL-7 (IL-2 2.5 ng/mL) [3] = assay: as above; conditions: 72 h
KAI3 (IL-2 2.5 ng/mL) [4] = assay: as above; conditions: 72 h
[5] = tested on: normal primary NK cells, pool 1 (3 donors) (IL-2 2.5 ng/mL); assay: as above; conditions: 72 h
[6] = tested on: normal primary NK cells, pool 3 (3 donors) (IL-2 2.5 ng/mL); assay: as above; conditions: 72 h
SNK-6 (IL-2 2.5 ng/mL) [7] = assay: as above; conditions: 72 h
NKL (IL-2 2.5 ng/mL) [8] = assay: as above; conditions: 72 h
IMC-1 (IL-2 20 ng/mL) [9] = assay: as above; conditions: 72 h
[10] = tested on: normal primary NK cells, pool 1 (3 donors), resting (IL-2 0 ng/mL); assay: as above; conditions: 72 h
[11] = tested on: normal primary NK cells, pool 2 (3 donors) (IL-2 2.5 ng/mL); assay: as above; conditions: 72 h
NK-92 (IL-2 2.5 ng/mL) [12] = assay: as above; conditions: 72 h
KHYG-1 (IL-2 2.5 ng/mL) [13] = assay: as above; conditions: 72 h
[14] = tested on: normal NK cells expanded with K562-aAPC; assay: as above; conditions: 72 h, IL-2 2.5 ng/mL
Method: (§1)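 Drug sensitivity and resistance testing on K562-aAPC-expanded normal NK cells: 5 concentrations (10-fold steps over a 10,000-fold range), 72 h at 37 °C, viability by CellTiter-Glo normalised to DMSO and benzethonium chloride controls; DSS from the fitted curve.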

[15] = tested on: normal NK cells expanded with K562-aAPC; assay: drug sensitivity score (DSS) (DSS units); higher = more sensitive; extreme values may be limits of the assay; conditions: 72 h; IL-2 2.5 ng/mL
Method: as §1

YT (IL-2 2.5 ng/mL) [16] = assay: as above; conditions: 72 h
NK-YS (IL-2 2.5 ng/mL) [17] = assay: as above; conditions: 72 h
DERL-7 (IL-2 2.5 ng/mL) [18] = assay: as above; conditions: 72 h
KAI3 (IL-2 2.5 ng/mL) [19] = assay: as above; conditions: 72 h
[20] = tested on: normal primary NK cells, pool 1 (3 donors) (IL-2 2.5 ng/mL); assay: as above; conditions: 72 h
[21] = tested on: normal primary NK cells, pool 3 (3 donors) (IL-2 2.5 ng/mL); assay: as above; conditions: 72 h
SNK-6 (IL-2 2.5 ng/mL) [22] = assay: as above; conditions: 72 h
NKL (IL-2 2.5 ng/mL) [23] = assay: as above; conditions: 72 h
IMC-1 (IL-2 20 ng/mL) [24] = assay: as above; conditions: 72 h
[25] = tested on: normal primary NK cells, pool 1 (3 donors), resting (IL-2 0 ng/mL); assay: as above; conditions: 72 h
[26] = tested on: normal primary NK cells, pool 2 (3 donors) (IL-2 2.5 ng/mL); assay: as above; conditions: 72 h
NK-92 (IL-2 2.5 ng/mL) [27] = assay: as above; conditions: 72 h
KHYG-1 (IL-2 2.5 ng/mL) [28] = assay: as above; conditions: 72 h

C[C@]12CC[C@H](O)CC1=CC[C@@H]1[C@@H]2CC[C@]2(C)C(c3cccnc3)=CC[C@@H]12 [Abiraterone] (max concentration tested 5000 nM)
percent inhibition of viability [%]
Conditions	0.5 nM	5 nM	50 nM	500 nM	5000 nM
DERL-7 (IL-2 2.5 ng/mL) [3]	-1.84	6.7	-3.24	8.85	-0.3
IMC-1 (IL-2 20 ng/mL) [9]	-0.05	0.08	1.73	4.6	25.9
KAI3 (IL-2 2.5 ng/mL) [4]	4.32	6.7	11.6	12.4	18.3
KHYG-1 (IL-2 2.5 ng/mL) [13]	2.05	18.6	-0.59	2.88	6.94
NK-92 (IL-2 2.5 ng/mL) [12]	3.02	0.66	4.19	19.8	18.9
NK-YS (IL-2 2.5 ng/mL) [2]	4.24	-1.71	1.76	0.55	14
NKL (IL-2 2.5 ng/mL) [8]	8.55	9.91	1.09	12.8	9.69
SNK-6 (IL-2 2.5 ng/mL) [7]	-4.3	-11.1	-26.2	-25.2	-1.46
YT (IL-2 2.5 ng/mL) [1]	-0.02	9.21	-0.43	11.5	4.01
[5]	-9.05	-7.76	5.1	-0.54	-7.49
[6]	5.18	4.84	1.7	15.9	-1.9
[10]	2.81	1.54	10.1	10.2	16.1
[11]	-1.86	7.99	1.79	9.51	6.09
[14]	-3.92	-2.08	-4.35	-1.44	15.5

Conditions	drug sensitivity score
DERL-7 (IL-2 2.5 ng/mL) [18]	0
IMC-1 (IL-2 20 ng/mL) [24]	1.72
KAI3 (IL-2 2.5 ng/mL) [19]	1.81
KHYG-1 (IL-2 2.5 ng/mL) [28]	0
NK-92 (IL-2 2.5 ng/mL) [27]	3.2
NK-YS (IL-2 2.5 ng/mL) [17]	0.2
NKL (IL-2 2.5 ng/mL) [23]	0
SNK-6 (IL-2 2.5 ng/mL) [22]	0.89
YT (IL-2 2.5 ng/mL) [16]	0
[15]	0.21
[20]	0
[21]	0
[25]	1
[26]	0

CO[C@H]1/C=C\C=C(/C)C(=O)NC2=CC(=O)C(NCCN(C)C)=C(C[C@@H](C)C[C@H](OC)[C@H](O)[C@@H](C)/C=C(\C)[C@@H]1OC(N)=O)C2=O [Alvespimycin] (max concentration tested 1000 nM)
percent inhibition of viability [%]
Conditions	0.1 nM	1 nM	10 nM	100 nM	1000 nM
DERL-7 (IL-2 2.5 ng/mL) [3]	-2.47	-2.74	9.85	73.2	101
IMC-1 (IL-2 20 ng/mL) [9]	-5.23	4.85	1.66	16.1	101
KAI3 (IL-2 2.5 ng/mL) [4]	3.95	3.1	8.75	78.1	104
KHYG-1 (IL-2 2.5 ng/mL) [13]	-3.99	2.16	2.52	55.2	107
NK-92 (IL-2 2.5 ng/mL) [12]	-5.39	0.79	7.9	62.4	105
NK-YS (IL-2 2.5 ng/mL) [2]	-5	5.02	9.34	96.8	105
NKL (IL-2 2.5 ng/mL) [8]	-9.27	5.22	1.11	89.3	90.7
SNK-6 (IL-2 2.5 ng/mL) [7]	11.2	9.82	13.6	97.6	91.2
YT (IL-2 2.5 ng/mL) [1]	-0.99	6.65	4.58	35.5	97
[5]	9.22	-0.64	16.4	73	87
[6]	-14.3	-9.11	6.58	46.3	85.2
[10]	9.61	-5.61	24.6	26.1	42
[11]	-14.3	-3.64	14.4	68.9	82.6
[14]	-6.1	-4.9	-1.57	67.3	100

Conditions	drug sensitivity score
DERL-7 (IL-2 2.5 ng/mL) [18]	15.1
IMC-1 (IL-2 20 ng/mL) [24]	8.22
KAI3 (IL-2 2.5 ng/mL) [19]	15.7
KHYG-1 (IL-2 2.5 ng/mL) [28]	12.2
NK-92 (IL-2 2.5 ng/mL) [27]	13.3
NK-YS (IL-2 2.5 ng/mL) [17]	19.2
NKL (IL-2 2.5 ng/mL) [23]	16.4
SNK-6 (IL-2 2.5 ng/mL) [22]	19.9
YT (IL-2 2.5 ng/mL) [16]	9.86
[15]	13.3
[20]	15.5
[21]	10.3
[25]	7.28
[26]	14.8

S=C(NCc1ccc2c(c1)OCO2)N1CCN(c2ncnc3c2oc2ccccc23)CC1 [Amuvatinib] (max concentration tested 10000 nM)
percent inhibition of viability [%]
Conditions	1 nM	10 nM	100 nM	1000 nM	10000 nM
DERL-7 (IL-2 2.5 ng/mL) [3]	0.19	2.67	18	55.9	90.5
IMC-1 (IL-2 20 ng/mL) [9]	-1.71	-0.29	1.01	41.2	44.1
KAI3 (IL-2 2.5 ng/mL) [4]	3.55	-2.41	7.21	17.6	54.5
KHYG-1 (IL-2 2.5 ng/mL) [13]	-5.63	-5.61	-1.04	24.3	73.6
NK-92 (IL-2 2.5 ng/mL) [12]	-8.12	-11.4	-3.54	36.4	65.1
NK-YS (IL-2 2.5 ng/mL) [2]	-2.83	-6.84	-2.71	12.6	91
NKL (IL-2 2.5 ng/mL) [8]	-10.5	-7.21	6.91	53.6	95
SNK-6 (IL-2 2.5 ng/mL) [7]	13.3	-6.01	16.5	40.9	60.9
YT (IL-2 2.5 ng/mL) [1]	-2.59	-1.83	3.31	19.5	49.5
[5]	-0.46	10.3	3.46	19.5	80.3
[6]	-1.07	8.45	6.14	11.8	60.8
[10]	7.55	15.6	5.58	28.6	83.9
[11]	-4.53	2.76	7.13	11.1	69.2
[14]	-2.56	-1.86	-4.91	0.6	18.6

Conditions	drug sensitivity score
DERL-7 (IL-2 2.5 ng/mL) [18]	12.9
IMC-1 (IL-2 20 ng/mL) [24]	7.59
KAI3 (IL-2 2.5 ng/mL) [19]	4.97
KHYG-1 (IL-2 2.5 ng/mL) [28]	7.56
NK-92 (IL-2 2.5 ng/mL) [27]	8.04
NK-YS (IL-2 2.5 ng/mL) [17]	7.16
NKL (IL-2 2.5 ng/mL) [23]	11.7
SNK-6 (IL-2 2.5 ng/mL) [22]	9.4
YT (IL-2 2.5 ng/mL) [16]	4.88
[15]	0.55
[20]	7.49
[21]	5.25
[25]	8.27
[26]	5.67

CC(C)(C#N)c1cc(Cn2cncn2)cc(C(C)(C)C#N)c1 [Anastrozole] (max concentration tested 10000 nM)
percent inhibition of viability [%]
Conditions	1 nM	10 nM	100 nM	1000 nM	10000 nM
DERL-7 (IL-2 2.5 ng/mL) [3]	1.86	1.72	1.5	4.62	1.85
IMC-1 (IL-2 20 ng/mL) [9]	-2.19	-4.02	-0.27	-6.87	-2.18
KAI3 (IL-2 2.5 ng/mL) [4]	4.34	-3.23	4.57	-3.97	4.8
KHYG-1 (IL-2 2.5 ng/mL) [13]	-3.64	-8.98	-2.57	-9.89	-0.45
NK-92 (IL-2 2.5 ng/mL) [12]	2.62	-14.9	-4.14	-11.2	0.08
NK-YS (IL-2 2.5 ng/mL) [2]	-0.21	-1.51	-0.63	-2.69	-1.18
NKL (IL-2 2.5 ng/mL) [8]	-3.4	-8.92	1.02	-7.99	1.34
SNK-6 (IL-2 2.5 ng/mL) [7]	-1.06	23.5	22.5	-18.6	2.15
YT (IL-2 2.5 ng/mL) [1]	6.09	-6.8	6.6	-5.12	8.27
[5]	-5.66	-8.98	-13.5	1.93	-12.4
[6]	-11.2	-0.62	-6.71	-6.71	-5.25
[10]	0.43	-12.5	-9.34	-4.56	1.51
[11]	-14.1	-1.97	-6.31	-1.14	-6.99
[14]	-3.07	-7.42	-9.56	-10	-14.1

Conditions	drug sensitivity score
DERL-7 (IL-2 2.5 ng/mL) [18]	0
IMC-1 (IL-2 20 ng/mL) [24]	0
KAI3 (IL-2 2.5 ng/mL) [19]	0
KHYG-1 (IL-2 2.5 ng/mL) [28]	0
NK-92 (IL-2 2.5 ng/mL) [27]	0
NK-YS (IL-2 2.5 ng/mL) [17]	0
NKL (IL-2 2.5 ng/mL) [23]	0
SNK-6 (IL-2 2.5 ng/mL) [22]	0
YT (IL-2 2.5 ng/mL) [16]	0
[15]	0
[20]	0
[21]	0
[25]	0
[26]	0

Source: the supplement of paper PMC5908809
